Results reported in patent publication US6905839B2, “In vivo phenotyping for human cytochrome P450 3A activity” (priority 2002, dated 2005).

Legend:
CYP3A [1] = conditions: male, human, in vivo
Description: The subject was not receiving any medication. […] Urine samples were obtained at a timed period (0-2, 2-4, 4-6, 6-8, 8-10, and 10-12) and the volume of the urine samples was noted. The recommended frequency of blood sampling is at least one time during a 2-hour urine collection. Urinary concentrations of cortisol and 6β-hydroxycortisol and plasma concentrations of cortisol were determined by HPLC and GC-MS, respectively. “The endogenous metabolic clearance (CLm(6β)-endo)” was calculated by Equation 4.
c) The fractional metabolic clearance for the 6β-hydroxylation of endogenous cortisol (CLm(6β)) is expressed as the amount of urinary excreted 6β-hydroxycortisol (X(6β)) divided by the area under the concentration-time curve of cortisol (AUC(F)); that is, CLm(6β)=X(6β)/AUC(F).

CYP3A [2] = conditions: pretreatment with 500-mg of clarithromycin twice a day for 7 days; cited from earlier work

variation of CLm(6β)-endo values during treatment (CYP3A [1]): 1.2 fold
SMILES: CC[C@H]1OC(=O)[C@H](C)[C@@H](O[C@H]2C[C@@](C)(OC)[C@@H](O)[C@H](C)O2)[C@H](C)[C@@H](O[C@@H]2O[C@H](C)C[C@H](N(C)C)[C@H]2O)[C@](C)(OC)C[C@@H](C)C(=O)[C@H](C)[C@@H](O)[C@]1(C)O [clarithromycin]
midazolam sleep time (CYP3A [2]): doubling | reduction in the systemic clearance of midazolam (CYP3A [2]): 64%
